Source: patent publication US20100160217A1 (priority 2005, published 2010)

Assays:
UNC-49/GABAA receptors = experiment: Electrophysiology: GABA-induced current in wild type and unc-74 animals; format: cell-based, C. elegans; details: unc-74 mutant animals
C. elegans [1] = experiment: Aldicarb resistance assay (paralysis on drug plates); format: in vivo; details: unc-74 animals (data not shown)
Procedure: (§1) Pharmacological resistance assays. Plates were equilibrated to room temperature, weighed, and equal volumes of different concentrations of levamisole or aldicarb were added to make plates containing specific concentrations of drug. Once plates dried, they were seeded with a drop of OP50 and incubated overnight at room temperature. A minimum of 15 young adult animals (levamisole) or L4 animals (aldicarb) were placed on drug plates and maintained for two (levamisole) or eight (aldicarb) hours. The percentage of animals on each plate that were paralyzed in response to mild stimulation was determined. Data presented represents the mean +/− SEM of n=number of plates.

C. elegans [2] = system: C. elegans
Procedure: as §1

[3] = system: levamisole sensitive nAChR
Procedure: (§2) Electrophysiology was performed as previously described (Richmond and Jorgensen, 1999a).
(§3) To directly examine levamisole sensitive nAChR function, electrophysiological analysis was performed on wild type and unc-74 mutant animals (FIG. 2). Intact body wall muscles of dissected animals were voltage clamped and the amount of current elicited in response to levamisole was measured.

nAChRs = details: unc-74 animals; reduction not greater than in unc-38 mutants
Procedure: as §2, §3

Structure (SMILES): NCCCC(=O)O [GABA]
- GABA induced currents compared with wild type (UNC-49/GABAA receptors): equivalent

Structure (SMILES): CNC(=O)O/N=C/C(C)(C)SC [aldicarb]
- resistance to aldicarb (C. elegans [1]): only partially resistant

Structure (SMILES): c1ccc([C@H]2CN3CCSC3=N2)cc1 [levamisole]
- resistance to levamisole (paralysis) (C. elegans [2]; unc-74 mutant animals, all concentrations tested, FIG. 1(B)): completely resistant
- response to levamisole (C. elegans [2]; unc-74 mutants, concentrations that completely paralyze wild type): no response
- concentration of levamisole at which animals become paralyzed (C. elegans [2]; wild type animals, levamisole resistance curves, FIG. 1(B)): ~0.15 mM
- time to hypercontraction and complete paralysis (C. elegans [2]; wild type animals, solid media, millimolar concentrations of levamisole (0.2 mM), FIG. 1(A)): ~2 h
- inward current elicited by focal pulses of levamisole [3]: around 200 pA
- levamisole induced current ([3]; unc-74 mutants, voltage clamped muscle cells): completely abolished

Structure (SMILES): CN1CCCC1c1cccnc1 (stereo not drawn) [nicotine]
- amplitude of nicotine current relative to wild type (nAChRs): reduced
